Measurements published in ChEMBL document CHEMBL1155687, “Anthoptilides A-E, new Briarane diterpenes from the Australian sea pen Anthoptilum cf. kukenthali” (J Nat Prod, 2000).

Target: T1, Adenosine receptor A1 (Rattus norvegicus, UniProt P25099)
T1 sequence (P25099 whole entry): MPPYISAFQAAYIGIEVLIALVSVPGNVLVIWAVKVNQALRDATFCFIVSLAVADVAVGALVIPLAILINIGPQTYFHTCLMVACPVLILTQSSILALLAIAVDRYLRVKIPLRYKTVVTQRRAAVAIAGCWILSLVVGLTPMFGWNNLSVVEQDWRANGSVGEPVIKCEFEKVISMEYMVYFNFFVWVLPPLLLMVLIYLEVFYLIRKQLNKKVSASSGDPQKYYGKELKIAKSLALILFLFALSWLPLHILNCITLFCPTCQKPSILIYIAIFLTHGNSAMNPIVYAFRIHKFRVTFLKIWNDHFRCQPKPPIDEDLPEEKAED
Assay: Displacement of [3H]DPCPX from adenosine A1 receptor in rat brain membrane
Format: cell membranes

CCC(=O)O[C@@H]1CC/C(C)=C\[C@@H]2OC(=O)C(C)=C2C[C@H]2C(C)=CC(=O)[C@H](OC(C)=O)[C@]12C [ANTHOPTILIDE C]
IC50: 3.1 µM

C/C=C(\C)C(=O)O[C@@H]1CC/C(C)=C\[C@@H]2OC(=O)C(C)=C2C[C@H]2C(C)=CC(=O)[C@H](OC(C)=O)[C@]12C [ANTHOPTILIDE A]
IC50: 420 µM

CC(=O)O[C@H]1C(=O)C=C(C)[C@@H]2CC3=C(C)C(=O)O[C@H]3/C=C(/C)CC[C@@H](OC(=O)c3ccccc3)[C@]21C [ANTHOPTILIDE D]
IC50: 500 µM

CC(=O)O[C@H]1C(=O)C=C(C)[C@@H]2CC3=C(C)C(=O)O[C@H]3/C=C(/C)CC[C@@H](OC(=O)C(C)C)[C@]21C [ANTHOPTILIDE B]
IC50: 45 µM

CCC(=O)O[C@@H]1CC/C(C)=C\[C@@H]2OC(=O)C(C)=C2C[C@H]2C(C)=C[C@H](OC(C)=O)[C@H](OC(C)=O)[C@]12C [ANTHOPTILIDE E]
IC50: 490 µM
